# Values joined by “and” are separate entries in the source; they are usually repeats but may differ in a detail not shown here. Equal entries are not always repeated.
# How the values were obtained:
# Assay type in all cases: functional, organism-based
# Details in all cases: Mus musculus
# L1210 [1] = experiment: Compound was tested for antitumor activity against L1210 Leukemia in mice at 12.5 mg/kg dose upon intraperitoneal administration; parameters: dose 12.5 mg/kg
# L1210 [2] = experiment: Compound was tested for antitumor activity against L1210 Leukemia in mice at 50 mg/kg dose upon intraperitoneal administration: Toxic; parameters: dose 50 mg/kg
# L1210 [3] = experiment: Compound was tested for antitumor activity against L1210 Leukemia in mice at 100 mg/kg dose upon intraperitoneal administration; parameters: dose 100 mg/kg
# L1210 [4] = experiment: Compound was tested for antitumor activity against L1210 Leukemia in mice at 6.25 mg/kg dose upon intraperitoneal administration; parameters: dose 6.25 mg/kg
# L1210 [5] = experiment: Compound was tested for antitumor activity against L1210 Leukemia in mice at 25 mg/kg dose upon intraperitoneal administration; parameters: dose 25 mg/kg
# L1210 [6] = experiment: Compound was tested for antitumor activity against L1210 Leukemia in mice at 25 mg/kg dose upon intraperitoneal administration: Toxic; parameters: dose 25 mg/kg
# L1210 [7] = experiment: Compound was tested for antitumor activity against L1210 Leukemia in mice at 50 mg/kg dose upon intraperitoneal administration; parameters: dose 50 mg/kg
# L1210 [8] = experiment: Compound was tested for antitumor activity against L1210 Leukemia in mice at 12.5 mg/kg dose upon intraperitoneal administration: Toxic; parameters: dose 12.5 mg/kg
# L1210 [9] = experiment: Compound was tested for antitumor activity against L1210 Leukemia in mice at 3.1 mg/kg dose upon intraperitoneal administration; parameters: dose 3.1 mg/kg
# L1210 [10] = experiment: Compound was tested for antitumor activity against L1210 Leukemia in mice at 1.5 mg/kg dose upon intraperitoneal administration; parameters: dose 1.5 mg/kg
Substance,T/C (L1210 [1]),Activity (L1210 [2]),T/C (L1210 [3]) [%],T/C (L1210 [4]),T/C (L1210 [5]) [%],Activity (L1210 [6]),T/C (L1210 [7]) [%],Activity (L1210 [8]),T/C (L1210 [9]) [%],T/C (L1210 [10]) [%]
"(2R,3R)-2,3-dihydroxy-1,4-diaminobutane Platinum (II) complex",118% and 131%,Toxic,195,125% and 135%,148,Toxic,–,–,–,–
CARBOPLATIN,125%,–,197,107%,148,–,196,–,–,–
CISPLATIN,–,–,–,82%,–,Toxic,–,Toxic,167,142
